The source made the active and inactive calls.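 The calls were made as follows: active = compounds giving half or more protection of infected cells from virus-caused growth loss, again on retest; inactive = the rest.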
Tested on: CEM cells HIV-1 protection, formazan growth assay
Assay: NCI AIDS Antiviral Assay
Conditions: for IC50: measured here: growth of uninfected CEM cells
Method in brief: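 Screen of anti-HIV-1 activity in human CEM cells using a formazan-based growth measurement at five drug concentrations. Hits with 50% or greater protection were repeated, and confirmation required reproducible complete protection.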

NNC(=S)N/N=C(\CCCC(=O)NCCc1ccccc1)CC(=O)c1ccccc1
EC50: > 219 µM | IC50: > 219 µM

O=C(O)CSc1n[nH]c(Cc2ccccc2)n1
EC50: > 1000 µM | IC50: > 1000 µM

COc1ccccc1N1C(=O)C2C3c4ccccc4C(OC(C)=O)(c4ccccc43)C2C1=O (stereo unspecified)
EC50: > 200 µM | IC50: > 200 µM

O=C1CC(C(CC(=O)c2ccccc2)c2ccccc2)C(=O)c2ccccc2N1 (stereo unspecified)
EC50: > 200 µM | IC50: 12.6 µM

Nc1ccc(S(=O)(=O)N/N=C/c2ccc3c(c2)OCO3)cc1
EC50: > 81.3 µM | IC50: > 81.3 µM

Nc1ccc2nc(-c3ccccn3)c(-c3ccccn3)nc2c1
EC50: 123 µM | IC50: > 200 µM

N#C/C(=C\c1ccc(O)c(O)c1)C(=O)NC1CCC(CC2CCC(NC(=O)/C(C#N)=C/c3ccc(O)c(O)c3)CC2)CC1 (stereo unspecified)
EC50: > 200 µM | IC50: 1.07 µM

COC(=O)C1CC2c3[nH]c4ccccc4c3CCN2C1 (stereo unspecified)
EC50: > 275 µM | IC50: > 275 µM

O=C(NC1CCC[C@H]1OC(=O)c1ccccc1)c1ccccc1 (stereo partly specified)
outcome: inactive

Cc1ccc([N+](=O)[O-])cc1NC1=NCCO1
EC50: > 200 µM | IC50: 186 µM

COc1ccc(OC)c(/C=C/c2ccnc3ccccc23)c1
EC50: 0.0631 µM | IC50: 1.29 µM

Cc1cc(Cl)nc(Nc2nc3ccccc3[nH]2)n1
EC50: > 200 µM | IC50: > 200 µM

CCc1nnc(CC)n1-n1c(Cc2ccccc2)n[nH]c1=O
EC50: > 200 µM | IC50: > 200 µM

CC1(C)C[C@@H]2C1CCC1(C)CC2(O)CC[C@H]1O (stereo partly specified)
EC50: > 200 µM | IC50: > 200 µM

COC(=O)C([C@H]1CC[C@H](OCc2ccccc2)[C@@]1(O)COCc1ccccc1)C(C)(O)CCc1ccccc1 (stereo partly specified)
outcome: inactive

COC(=O)C1C(O)CCC2CN3CCc4c([nH]c5ccccc45)C3CC21 (stereo unspecified)
EC50: > 200 µM | IC50: 70.8 µM

CCCCCCCCCCCCCCCC(=O)Nc1ccn(C2CCC(COP(=O)(O)OC3CC(n4cc(F)c(=O)[nH]c4=O)OC3CO)O2)c(=O)n1 (stereo unspecified)
EC50: > 0.126 µM | IC50: 0.038 µM

CC(C)(C)C1CCC2c3c([nH]c4ncccc34)C3C(=O)N(c4ccccc4)C(=O)C3C2C1 (stereo unspecified)
EC50: > 1.78 µM | IC50: > 1.78 µM

c1cc(C[S+]2CCCC2)sc1C[S+]1CCCC1
outcome: inactive

O=C(OCCN1CCCC12CCCCC2)C(c1ccccc1)C1C=CCC1 (stereo unspecified)
EC50: > 200 µM | IC50: 24.5 µM

CNc1ccc2ncccc2c1[N+](=O)[O-]
EC50: > 46.8 µM | IC50: > 46.8 µM

CCN(CC)CC(C)(C)C(=O)/C=C/c1ccc(Cl)cc1
EC50: > 200 µM | IC50: 7.24 µM

NCCSSCC(N)C(=O)O (stereo unspecified)
EC50: > 58.9 µM | IC50: > 58.9 µM

O=C1CSC2=NC3=C(CSC/C3=C\c3ccccc3)C(c3ccccc3)N12 (stereo unspecified)
EC50: > 200 µM | IC50: 43.7 µM

CN(Cc1ccccc1)c1nc(=[N+](C)C)ss1
outcome: inactive

CCC[C@@H]1C(=O)N=C(N)N1C(=O)OCc1ccccc1
EC50: > 200 µM | IC50: > 200 µM

O=C1NN=C(C2CCCCC2)C12CCCCC2
EC50: > 214 µM | IC50: 67.6 µM

Cc1[cH-]c(=O)n(-c2ccccc2)n1.[Au+].[Au].c1ccc([PH+](c2ccccc2)c2ccccc2)cc1.c1ccc([PH+](c2ccccc2)c2ccccc2)cc1
EC50: > 3.47 µM | IC50: > 3.47 µM

CCC1=NC(N/N=C/c2ccco2)=N/C1=C\c1ccccc1O
EC50: > 50.1 µM

CCCC(C(=O)OCCN1CCCC12CCCCC2)C1CCCC1 (stereo unspecified)
EC50: > 200 µM | IC50: 11 µM

O=C(O)CSSCC(=O)O
EC50: > 200 µM | IC50: > 200 µM

CCN1CCC(O)(/C=C/c2cccc(C)c2)C(C(=O)/C=C/c2cccc(C)c2)C1 (stereo unspecified)
EC50: > 200 µM | IC50: 3.55 µM

Cn1[nH]c(=O)ccc1=O
EC50: > 2000 µM | IC50: 1780 µM

O=C1CN(c2cccc(Cl)c2)C(=O)CN1NCNN1CC(=O)N(c2cccc(Cl)c2)CC1=O
EC50: > 200 µM | IC50: > 200 µM

CC(=O)c1sc(=N)n(-c2c(C)cccc2C)c1C
EC50: > 200 µM | IC50: > 200 µM

CC(O)(/C=C/c1ccccc1)P(=O)(O)c1ccccc1 (stereo unspecified)
EC50: > 200 µM | IC50: > 200 µM

CC[N+](CC)=c1ccc2nc3c(cc(N)c4ccccc43)oc-2c1
EC50: > 200 µM | IC50: 3.8 µM

Clc1ccccc1CN1COc2c(ccc3cccnc23)C1
EC50: > 30.9 µM | IC50: 1.58 µM

Cc1nc2cc3c(cc2n2cccc12)oc1ccccc13
EC50: > 44.7 µM | IC50: 35.5 µM

O=c1[nH]nc(-c2ccccc2)n1/N=C/c1c(O)ccc2ccccc12
EC50: > 200 µM | IC50: 112 µM

Cc1cccc(C)c1N=O
outcome: inactive

C1CCC2(CC1)CCCN2
EC50: > 200 µM | IC50: > 200 µM

Cc1nnc2n1-c1ccccc1-c1[nH]c3ccccc3c1C2
EC50: > 200 µM | IC50: 22.4 µM

CCSc1sc(=Nc2ccc(N=c3sc(C)c(SC)s3)cc2)sc1-c1ccc(C)cc1
outcome: inactive

Source: PubChem BioAssay AID179 (DTP/NCI, 2004)
